The subject of test [1] is antibody D12 single-chain Fv (VH SEQ ID NO:2, VL SEQ ID NO:12). Put plainly: ELISA, inhibition of antibody binding to BSA-estradiol by soluble steroid. Also noted: species or system human. How it is done: An ELISA-based screening method was used to rank different clones on the basis of their relative equilibrium dissociation constants for estradiol. In this assay, crude culture supernatant was equilibrated with soluble steroids at a range of concentrations (10 μM, 1 μM, 100 nM and zero estradiol) then applied to ELISA wells coated with […]. Affinity for the soluble steroid was then indicated by a reduction in ELISA signal intensity due to the antibody being in complex with the soluble ligand and unavailable for binding to the plate. This gives a reduction in ELISA signal.
The binding properties of other steroids were investigated by measuring their ability to compete with estradiol for binding to D12 antibody. This was investigated using the ELISA based screening method (Example 2b) and any cross-reacting compounds were investigated further by equilibrium dialysis.
Culture supernatant from the antibody clone D12 was equilibrated with soluble steroid at a range of concentrations from 5 nM to 100 mM (or the limit solubility of the steroid), then transferred to an ELISA plate coated with BSA-estradiol. The ELISA plate was then processed as for a standard phage ELISA assay. Affinity for the soluble competing steroid was then indicated by a reduction in ELISA signal intensity due to the antibody being in complex with the soluble ligand and unavailable for binding to the plate.

The target in test [2] is mouse monoclonal antibody DB3. The following applies: read-out: dissociation constant; cited from earlier work.
In test [3] the target is progesterone-binding antibody from a non immunised murine repertoire. The following applies: cited from earlier work.
Test [4] concerns the target antibody D12 single-chain Fv (VH SEQ ID NO:2, VL SEQ ID NO:12; clone 1C with Ala80-Val80 in the lambda light chain). Description: Equilibrium dialysis, binding of tritium labelled estradiol to antibody D12. Also noted: species or system human. The following applies: 22° C., PBS, 20 hr, read-out: dissociation constant for estradiol. How it is done:
Antibody diluted 4-fold to 200-fold was incubated with 50 pM tritium labelled estradiol plus unlabelled estradiol giving total estradiol concentrations from 100 pM to 100 μM. […] Equilibrium dialysis was carried out for 20 hr at 22° C. in phosphate buffered saline with a membrane having a 12 kDa exclusion limit.
Equilibrium dialysis was carried out at 22° C. in phosphate-bufferedsaline (PBS) using a microdialyzer (Hoefer) with a membrane having a 12 kDa exclusion limit. […] Antibody diluted 4-fold to 200-fold (from 0.7 nM to 33 nM, based on concentrations calculated from binding data) was incubated with 50 pM labelled estradiol (Amersham, tritium-labelled at positions 2,4,6,7,16,17) plus unlabelled estradiol to give total estradiol concentrations from 100 pM-100 μM. Mixtures were equilibrated for 2 h at 22° C. and dialysed against PBS for 20 h with constant mixing, before taking samples from each chamber for measurement of radioactivity.
Over the range of ligand concentrations necessary for affinity measurement (up to 100 nM), less than 10% of labelled estradiol bound non-specifically. After subtraction of non-specific binding, the dissociation constant (Kd) of estradiol binding to antibody D12 was calculated from equilibrium dialysis data using a non-linear least-squaresfit, assuming a single class of binding sites.

Test [5] shares this target. Put plainly: Equilibrium dialysis, competition of steroids with tritium labelled estradiol for antibody D12. The test is classed as binding, human. The following applies: for pKd: D12 13.3 nM, 4 nM tritium labelled estradiol, competing steroid 100 nM to 100 μM, competitive inhibition assumed, read-out: affinities (dissociation constants) for cross-reactive steroids. How it is done: Dissociation constants were measured by equilibrium dialysis using conditions described for testosterone and estriol (FIG. 3 and the description of FIG. 3 given below). All steroids were tested at concentrations ranging from 10 nM to their solubility limits in PBS. The dissociation constants of antibody D12 for these compounds were calculated assuming that they were competitive inhibitors of estradiol binding.
Antibody D12 (13.3 nM) was incubated with 4 nM tritium labelled estradiol, plus competing steroid (100 nM to 100 μM). Pooled data from 3 experiments. Equilibrium dialysis was carried out for 20 hr at 22° C. in phosphate buffered saline with a membrane having a 12 kDa exclusion limit.
Antibody D12 (at a concentration of 13.3 nM) was incubated for 2 h with a mixture containing both tritium labelled estradiol (4 nM) and the competing steroid (100 nM to 100 μM), before equilibrium dialysis. The binding of other steroids to D12 antibody was quantified assuming competitive inhibition of estradiol binding. Data was analyzed with proprietary software (FIG.P package: Elsevier Biosoft).

The mark [6] stands for this setting: soluble steroid 5 nM to 100 mM (or the limit solubility of the steroid).

pKd: −log10 of the molar value. Entries after “also recorded” stand apart in the source; their conditions may differ.

Consider `C[C@]12CC[C@@H]3c4ccc(O)cc4CC[C@H]3[C@@H]1C[C@@H](O)[C@@H]2O` [Estriol, estriol], for which, in test [1] (soluble steroid at 30 μM), the “inhibition of binding to BSA-estradiol in ELISA” value (“inhibition of binding” below) is on record as “did not inhibit estradiol binding”.
Consider `CC(=O)[C@H]1CC[C@H]2[C@@H]3CCC4=CC(=O)CC[C@]4(C)[C@H]3CC[C@]12C` [progesterone], for which, in test [1] (soluble steroid at 100 μM), the “inhibition of binding” value is “inhibited estradiol binding; also recorded: inhibited only at very high concentrations”. The pKd in test [2] is ~9.00. For the same compound, the dissociation constant result in test [3] is given as “only micromolar”.
As to `C[C@]12CC[C@@H]3c4ccc(O)cc4CC[C@H]3[C@@H]1CC[C@@H]2O` [estradiol, 1,3,5.estratriene 3,17 β-diol], the pKd in test [4] is 8.43.
`C[C@]12CC[C@@H]3c4ccc(OS(=O)(=O)O)cc4CC[C@H]3[C@@H]1C[C@@H](O)[C@@H]2O` [Estriol-3-sulphate]: the “inhibition of binding” value in test [1] (soluble steroid at 100 μM) was “inhibited estradiol binding”; in test [1] (soluble steroid at 100 μM, listed as Estriol-3 sulphate), “inhibited only at very high concentrations”.
Regarding `C[C@]12CC[C@@H]3c4ccc(O)cc4CC[C@H]3[C@@H]1C[C@H](O)[C@@H]2O` [16-epiestriol], in test [5], the pKd is 3.79. In test [1] (soluble steroid at 100 μM), the “inhibition of binding” value is “inhibited estradiol binding; also recorded: inhibited only at very high concentrations”.
On to `C[C@]12CC[C@@H]3c4ccc(O[C@@H]5O[C@H](C(=O)O)[C@@H](O)[C@H](O)[C@H]5O)cc4CC[C@H]3[C@@H]1C[C@@H](O)[C@@H]2O` [estriol-3-β-D-glucuronide], for which the “inhibition of binding” value is “neither cholesterol nor estriol-3-β-D-glucuronide inhibited” in test [1] (setting [6]) and “did not show any inhibition” in test [1] (soluble steroid 5 nM to 100 mM (or the limit solubility of the steroid), listed as Estriol-3-β-D-glucuronide).
Regarding `CC(C)CCC[C@@H](C)[C@H]1CC[C@H]2[C@@H]3CC=C4C[C@@H](O)CC[C@]4(C)[C@H]3CC[C@]12C` [cholesterol], the “inhibition of binding” value in test [1] (setting [6]) is given as “neither cholesterol nor estriol-3-β-D-glucuronide inhibited; also recorded: did not show any inhibition”.
Regarding `C[C@]12CC[C@H]3[C@@H](CCC4=CC(=O)CC[C@@]43C)[C@@H]1CC[C@@H]2O` [testosterone], in test [5], the “selectivity for estradiol over the steroid” value is given as “approximately 1,000 fold” and the pKd was 4.82. Moreover, in test [1] (soluble steroid at 30 μM), the “inhibition of binding” value is listed as “inhibited estradiol binding; also recorded: showed inhibition”.
Consider `C[C@]12CC[C@@H]3c4ccc(O)cc4CC[C@H]3[C@@H]1C[C@@H](O)[C@H]2O` [17-epiestriol], for which, in test [1] (soluble steroid at 100 μM), the “inhibition of binding” value is listed as “inhibited estradiol binding; also recorded: inhibited only at very high concentrations”.
Turning to `C[C@]12CCC(=O)C[C@@H]1CC[C@@H]1[C@@H]2CC[C@]2(C)[C@@H](O)CC[C@@H]12` [dihydrotestosterone], the “inhibition of binding” value in test [1] (soluble steroid at 30 μM) is recorded as “showed inhibition”; in test [1] (soluble steroid at 30 μM, listed as Dihydrotestosterone), “inhibited estradiol binding”.

Values taken from patent publication US5977319A, “Specific binding members for estradiol; materials and methods” (Cambridge Antibody Technology Limited, priority 1997, dated 1999).
